Where “and” joins values, the source holds several entries; their conditions need not be identical. Identical values can stand only once.
What was measured:
[1] = test system: Na^+ current of larger diameter DRG neurons; assay type: cell-based, mouse
[2] = test system: TTX-S Na^+ currents from adult mouse DRG neurons
[3] = biological target: hNav1.7 (Homo sapiens, UniProt Q15858); test: automated patch-clamp, hNav1.7 stably expressed in CHO cells; assay type: cell-based
Procedure: (§1) CHO cells stably expressing hNav1.7 were cultured in Dulbecco’s Modified Eagle’s Medium (DMEM) supplemented with 10% foetal calf serum, 1 mM pyruvic acid, 4 mM glutamine, 10 U/mL penicillin and 10 μg/mL streptomycin (Gibco, Grand Island, NY), and incubated at 37°C in a 5% CO2 atmosphere. For electrophysiological recordings, cells were detached with trypsin and floating single cells were diluted (∼300,000 cells/mL) in medium containing (in mM): 4 KCl, 140 NaCl, five glucose, 10 2-[4-(2-hydroxyethyl)piperazin-1-yl]ethanesulfonic acid (HEPES, pH 7.4, osmolarity 290 mOsm). Similar culturing conditions were used for HEK-293 cell lines expressing hNav1.1, hNav1.2, hNav1.3, hNav1.5 and hNav1.6 channels. The plasmid pcDNA3.1+/C-(K)-DYK (Genscript, Piscataway, New Jersey, USA) was used for transient expression of mNav1.7 in HEK-293T cells using the Maxcyte electroporation system.
(§2) Chips with single-hole and high-resistance 5.14 ± 0.02 MΩ (n = 384) were used for HEK-293 cell recordings. Only cells with seal resistance above 500 MΩ and Rs values <15 MΩ were kept for analyses. All Rs values were compensated at 90%. Voltage pulses and whole-cell recordings were achieved using the PatchControl384 v1.5.3 software (Nanion Technologies, Munich, Germany) and the Biomek v1.0 interface (Beckman Coulter, Villepinte, France). Prior to recordings, dissociated cells were shaken at 60 rpm in a cell hotel reservoir at 10°C. After cell catching, sealing, whole-cell formation, liquid application, recording, and data acquisition were all performed sequentially and automatically. The intracellular solution contained (in mM): 10 KCl, 110 kF, 10 NaCl, 1 MgCl2, 1 CaCl2, 10 Ethylene Glycol Tetraacetic Acid (EGTA) and 10 HEPES (pH 7.2, osmolarity 280 mOsm), and the extracellular solution (in mM): 140 NaCl, 4 KCl, 2 CaCl2, 1 MgCl2, five glucose, and 10 HEPES (pH 7.4, osmolarity 298 mOsm). Whole-cell experiments were done at −100 mV holding potential, while currents triggered at 0 mV test potential were sampled at 10 kHz (sweeps every 8 s). […]

[4] = biological target: T1, mNav1.7 (Mus musculus, UniProt Q62205); test: automated patch-clamp, mNav1.7 electroporated in HEK293 cells; assay type: cell-based; conditions: mNav1.7 (Figure 4b)
T1 construct: DYK (FLAG) tag of vector pcDNA3.1+/C-(K)-DYK (C); host or cells: HEK-293T cells, Maxcyte electroporation
Procedure: as §1
(§3) Chips with single-hole and high-resistance 5.14 ± 0.02 MΩ (n = 384) were used for HEK-293 cell recordings. Only cells with seal resistance above 500 MΩ and Rs values <15 MΩ were kept for analyses. All Rs values were compensated at 90%. Voltage pulses and whole-cell recordings were achieved using the PatchControl384 v1.5.3 software (Nanion Technologies, Munich, Germany) and the Biomek v1.0 interface (Beckman Coulter, Villepinte, France). […]

[5] = test system: hNav1.4; test: automated patch-clamp, hNav1.4; assay type: cell-based, human
Excerpt: as §2, with “s). Compounds were prepared at various concentrations in the extracellular solution supplemented with 0.3% BSA and distributed in 384-well plates according to a pre-designed template.” for “s).”

[6] = test system: hNav1.5; test: automated patch-clamp, hNav1.5; assay type: cell-based, human; conditions: up to 3,300 nM (Figure 4c)
Procedure: as §1, §3

[7] = test system: mice (adult female Swiss); test: automated von Frey test (tactile sensitivity); assay type: in vivo, mouse
[8] = test system: mice (adult female Swiss); test: hot-plate test (heat sensitivity); assay type: in vivo, mouse; conditions: 55.0°C
Excerpt: (§4) The study was experimentally designed to have group sizes of at least six animals per group, with intravenous injection as an exclusion criterion. In addition, randomization and blinding (one of the two experimenters being blind to treatment group) were undertaken in all animal experiments. […] Prior to testing, each mouse underwent a 20-min acclimation to the experimental laboratory environment (in its home cage).
Each mouse, injected or not with PBS +0.1% BSA or toxin solution in the right hind limb, was put on a hot-plate (HCP No. 35150, Ugo Basile, Italy) set at the temperature of 55.0°C ± 0.2°C 15–30 min after limb injection. The measured parameter as the first pain-related manifestation was the latency (in seconds) for the animal to shake the right hind limb ([Deuis et al., 2017]). This latency, considered as a painful response to heat, was recorded simultaneously by two observers (one being blind to treatment group) with a timer integrated into the set-up. A maximal cut-off time of 30 s was used to prevent tissue damage.

[9] = test system: mice (adult female Swiss); conditions: mouse, in vivo
Excerpt: as §4

[10] = test system: TTX-R Na^+ currents from adult mouse DRG neurons
[11] = test system: C57Bl6 mice; conditions: mouse, in vivo, ip
[12] = test system: ryanodine receptor; conditions: ref Ronjat et al., 2016; cited from earlier work
[13] = test system: Nav1.7; conditions: cited from earlier work
[14] = test system: N-type calcium channels; conditions: cited from earlier work

hNav1.7, sequence (Q15858 whole entry): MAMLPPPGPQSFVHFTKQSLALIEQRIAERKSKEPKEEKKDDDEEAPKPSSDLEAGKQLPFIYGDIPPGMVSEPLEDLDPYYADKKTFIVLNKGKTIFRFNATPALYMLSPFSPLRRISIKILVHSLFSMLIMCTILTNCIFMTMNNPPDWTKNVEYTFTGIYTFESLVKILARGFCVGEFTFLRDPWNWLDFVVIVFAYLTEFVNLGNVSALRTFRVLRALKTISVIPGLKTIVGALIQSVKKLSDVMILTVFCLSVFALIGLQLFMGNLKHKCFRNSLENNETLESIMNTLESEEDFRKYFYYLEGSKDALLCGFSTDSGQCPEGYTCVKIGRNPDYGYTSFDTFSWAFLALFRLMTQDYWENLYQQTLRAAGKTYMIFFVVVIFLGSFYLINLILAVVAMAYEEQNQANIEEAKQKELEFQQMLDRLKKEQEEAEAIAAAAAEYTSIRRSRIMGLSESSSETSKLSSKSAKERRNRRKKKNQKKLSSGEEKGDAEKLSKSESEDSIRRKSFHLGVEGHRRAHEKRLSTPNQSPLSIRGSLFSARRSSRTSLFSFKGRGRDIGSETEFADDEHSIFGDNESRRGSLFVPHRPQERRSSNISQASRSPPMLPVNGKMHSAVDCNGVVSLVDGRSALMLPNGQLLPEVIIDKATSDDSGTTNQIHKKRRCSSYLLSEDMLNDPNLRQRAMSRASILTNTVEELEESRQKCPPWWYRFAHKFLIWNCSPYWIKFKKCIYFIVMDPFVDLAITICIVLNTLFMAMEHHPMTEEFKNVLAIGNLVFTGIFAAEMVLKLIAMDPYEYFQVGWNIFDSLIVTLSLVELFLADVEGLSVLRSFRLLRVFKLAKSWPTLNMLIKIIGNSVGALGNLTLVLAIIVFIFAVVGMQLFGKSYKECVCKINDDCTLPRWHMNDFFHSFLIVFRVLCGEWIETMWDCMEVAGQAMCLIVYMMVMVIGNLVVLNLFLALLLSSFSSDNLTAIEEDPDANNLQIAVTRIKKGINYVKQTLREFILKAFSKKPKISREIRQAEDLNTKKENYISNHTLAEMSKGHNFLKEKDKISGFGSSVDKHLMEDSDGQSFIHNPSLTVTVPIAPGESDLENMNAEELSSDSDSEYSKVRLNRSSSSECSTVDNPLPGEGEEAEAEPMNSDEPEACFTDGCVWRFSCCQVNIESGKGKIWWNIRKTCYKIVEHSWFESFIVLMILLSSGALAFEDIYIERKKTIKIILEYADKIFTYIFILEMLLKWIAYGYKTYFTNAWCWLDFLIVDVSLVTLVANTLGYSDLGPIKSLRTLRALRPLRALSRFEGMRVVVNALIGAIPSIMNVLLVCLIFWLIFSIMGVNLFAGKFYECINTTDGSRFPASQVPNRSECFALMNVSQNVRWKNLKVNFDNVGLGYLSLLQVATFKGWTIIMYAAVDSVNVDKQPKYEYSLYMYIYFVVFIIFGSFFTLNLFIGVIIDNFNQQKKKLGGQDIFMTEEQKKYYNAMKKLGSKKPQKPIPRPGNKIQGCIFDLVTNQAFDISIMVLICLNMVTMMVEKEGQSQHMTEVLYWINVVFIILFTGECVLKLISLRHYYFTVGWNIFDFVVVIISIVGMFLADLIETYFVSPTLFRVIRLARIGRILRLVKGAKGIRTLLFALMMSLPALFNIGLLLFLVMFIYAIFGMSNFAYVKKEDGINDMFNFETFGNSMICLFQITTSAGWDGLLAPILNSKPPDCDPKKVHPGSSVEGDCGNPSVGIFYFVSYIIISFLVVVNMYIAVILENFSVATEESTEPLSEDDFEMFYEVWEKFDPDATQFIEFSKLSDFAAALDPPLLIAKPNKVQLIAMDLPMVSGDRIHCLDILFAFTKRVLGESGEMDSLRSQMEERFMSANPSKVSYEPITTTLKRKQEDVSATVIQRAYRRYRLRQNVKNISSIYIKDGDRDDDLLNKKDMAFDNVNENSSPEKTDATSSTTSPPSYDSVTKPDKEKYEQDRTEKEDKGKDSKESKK
T1 sequence (Q62205 whole entry): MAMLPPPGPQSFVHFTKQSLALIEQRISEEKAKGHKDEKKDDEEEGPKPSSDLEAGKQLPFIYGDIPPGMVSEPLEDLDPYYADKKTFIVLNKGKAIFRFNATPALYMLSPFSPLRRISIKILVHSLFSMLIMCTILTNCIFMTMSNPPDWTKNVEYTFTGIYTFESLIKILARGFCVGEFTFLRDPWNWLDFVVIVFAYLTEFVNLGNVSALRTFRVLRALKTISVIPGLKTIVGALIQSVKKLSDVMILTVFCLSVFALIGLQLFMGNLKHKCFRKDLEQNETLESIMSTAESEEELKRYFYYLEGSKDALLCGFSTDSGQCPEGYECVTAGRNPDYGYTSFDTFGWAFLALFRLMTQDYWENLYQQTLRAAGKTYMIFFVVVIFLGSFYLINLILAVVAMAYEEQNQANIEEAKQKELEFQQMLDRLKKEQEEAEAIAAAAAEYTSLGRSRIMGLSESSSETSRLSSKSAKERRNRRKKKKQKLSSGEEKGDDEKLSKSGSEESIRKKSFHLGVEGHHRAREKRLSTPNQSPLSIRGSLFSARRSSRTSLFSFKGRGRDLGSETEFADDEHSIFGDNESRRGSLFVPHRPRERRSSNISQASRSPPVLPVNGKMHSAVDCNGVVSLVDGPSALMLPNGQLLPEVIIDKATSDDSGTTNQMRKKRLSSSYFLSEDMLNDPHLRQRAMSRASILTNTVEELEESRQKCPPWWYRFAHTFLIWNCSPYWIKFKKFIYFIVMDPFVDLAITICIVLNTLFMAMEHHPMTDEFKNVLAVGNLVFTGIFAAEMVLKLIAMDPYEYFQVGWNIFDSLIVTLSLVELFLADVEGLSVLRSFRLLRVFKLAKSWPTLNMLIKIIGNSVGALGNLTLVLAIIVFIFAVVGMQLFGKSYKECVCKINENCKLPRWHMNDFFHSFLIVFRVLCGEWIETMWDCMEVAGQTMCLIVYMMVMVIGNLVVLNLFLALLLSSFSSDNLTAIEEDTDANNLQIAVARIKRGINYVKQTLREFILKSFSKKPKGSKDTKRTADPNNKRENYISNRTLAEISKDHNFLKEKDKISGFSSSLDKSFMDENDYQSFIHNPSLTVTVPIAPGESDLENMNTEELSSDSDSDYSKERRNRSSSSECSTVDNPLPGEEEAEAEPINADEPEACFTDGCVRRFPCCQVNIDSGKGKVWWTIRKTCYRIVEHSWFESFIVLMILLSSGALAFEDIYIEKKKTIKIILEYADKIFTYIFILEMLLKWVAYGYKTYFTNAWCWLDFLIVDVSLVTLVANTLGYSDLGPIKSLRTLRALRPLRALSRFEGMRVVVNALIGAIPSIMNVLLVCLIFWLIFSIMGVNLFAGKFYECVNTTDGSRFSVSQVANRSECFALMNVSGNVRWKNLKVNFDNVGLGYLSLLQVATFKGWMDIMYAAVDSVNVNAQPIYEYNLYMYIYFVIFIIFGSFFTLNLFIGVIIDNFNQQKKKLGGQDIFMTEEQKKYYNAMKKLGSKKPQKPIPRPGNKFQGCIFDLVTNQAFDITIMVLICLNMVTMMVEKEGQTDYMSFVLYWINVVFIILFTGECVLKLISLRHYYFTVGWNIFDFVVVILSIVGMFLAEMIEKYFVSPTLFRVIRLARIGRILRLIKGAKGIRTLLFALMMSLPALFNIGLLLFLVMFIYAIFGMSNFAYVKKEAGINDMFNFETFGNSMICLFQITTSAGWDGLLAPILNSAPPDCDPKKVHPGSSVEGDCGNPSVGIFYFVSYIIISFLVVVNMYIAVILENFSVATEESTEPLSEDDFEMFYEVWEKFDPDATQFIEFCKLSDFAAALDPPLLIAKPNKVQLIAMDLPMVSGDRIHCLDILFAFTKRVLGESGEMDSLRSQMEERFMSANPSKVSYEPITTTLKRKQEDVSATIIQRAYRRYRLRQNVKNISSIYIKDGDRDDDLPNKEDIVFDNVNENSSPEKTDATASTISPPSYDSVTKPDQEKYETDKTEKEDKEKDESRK

NC1=N[C@H](O)[C@H]2[C@H]3O[C@]4(O)O[C@@H]([C@@H](O)[C@@]2(N1)[C@@H]4O)[C@]3(O)CO [TTX, tetrodotoxin, reference compound]
Na+ current remaining (% of initial peak amplitude) [1]: 64.8% ± 4.2
Na+ current remaining (% of initial peak amplitude) [2]: 9.5% ± 1.7

CC[C@H](C)[C@H](NC(=O)[C@H](CCC(N)=O)NC(=O)[C@H](Cc1ccc(O)cc1)NC(=O)[C@H](CCCCN)NC(=O)[C@@H]1CSSC[C@@H]2NC(=O)[C@H](CCC(N)=O)NC(=O)[C@H](CC(=O)O)NC(=O)[C@H](CC(N)=O)NC(=O)[C@H](CO)NC(=O)[C@@H]3CCCN3C(=O)[C@H](CC(N)=O)NC(=O)[C@@H]3CSSC[C@H](NC(=O)[C@H](C(C)C)NC(=O)[C@H](CC(C)C)NC(=O)[C@H](CCCCN)NC(=O)[C@H](CO)NC(=O)[C@H](CO)NC(=O)[C@H](CCCCN)NC(=O)[C@H](CSSC[C@H](NC(=O)[C@@H](N)CCC(=O)O)C(=O)N[C@@H](CC(C)C)C(=O)N[C@@H](CCC(=O)O)C(=O)N[C@@H]([C@@H](C)CC)C(=O)N[C@@H](Cc4ccccc4)C(=O)N[C@@H](CCCCN)C(=O)N[C@@H](C)C(=O)N3)NC2=O)C(=O)N[C@@H](CO)C(=O)N[C@@H](CCCNC(=N)N)C(=O)N[C@@H](CCCCN)C(=O)N[C@@H]([C@@H](C)O)C(=O)N[C@@H](CCCNC(=N)N)C(=O)N[C@@H](Cc2c[nH]c3ccccc23)C(=O)N1)C(=O)NCC(=O)O [sHwTx-IV GCOOH]
fold less potent than HwTx-IV on hNav1.7 [3]: 16 fold
nH (Hill number) ([3]; hNav1.7 (Figure 4c)): −0.98
nH (Hill number) ([3]; hNav1.7 in CHO cells (Figure 4a)): −0.97
nH (Hill number) [4]: −0.90
inhibition of hNav1.4 [5]: not affected
inhibition of hNav1.5 [6]: no inhibition up to 3,300 nM
force intensity for hind limb withdrawal ([7]; 98 nmol/kg intraplantar, 15–30 min, versus vehicle, P < 0.010): significantly (P < 0.010) increased
dose efficiency difference between both peptides, von Frey ([7]; 14–98 nmol/kg intraplantar): no dose efficiency difference could be observed between both peptides
reaction time to heat (latency to shake hind limb) ([8]; 10–98 nmol/kg intraplantar, 15–30 min, versus vehicle, P < 0.050): significant (P < 0.050) increase in the reaction time to heat
threshold analgesic dose, hot-plate ([8]; intraplantar): 10 nmol/kg
death [9]: absence of death
toxicity (behaviour) after intraplantar injection [9]: no abnormal mice behavior
IC50 [2]: 14 nM
TTX-S peak current amplitude after wash-out [2]: −3.2 ± 0.7 nA
TimeA (10% to 90% current increase, activation) [2]: 0.31 ± 0.06 ms and 0.27 ± 0.07 ms and 0.28 ± 0.11 ms
TimeI (90% to 10% current decrease, inactivation) [2]: 6.93 ± 1.23 ms and 6.66 ± 1.42 ms and 6.59 ± 1.24 ms
effect on activation or inactivation kinetics [2]: did not alter activation or inactivation kinetics
fold more potent on TTX-S DRG currents than on mNav1.7 currents [2]: 11.8 fold
fold more potent than HwTx-IV on mouse DRG TTX-S Na+ currents [2]: 9.5 fold
nH (Hill number) [2]: 0.7
reversibility of effect on TTX-S current [2]: reversible
slope (kG) of conductance-voltage curves [2]: slight, but significant (P < 0.002), changes
VI50% (voltage of 50% inactivation) ([2]; 13 nM, n = 4): −82 ± 2 mV
VA50% (voltage of 50% maximal conductance) ([2]; 13 nM, n = 5): −32 ± 1 mV
block of TTX-S Na+ currents ([2]; 130 nM): potently blocked
time to stationary TTX-S peak current block ([2]; 130 nM, n = 8): 2.6 ± 0.6 min
IC50 [10]: 2000 nM
nH (Hill number) [10]: 0.8
block of TTX-R Na+ currents ([10]; 130 nM): largely sparring
animals with signs of hindlimb weakness [11]: Seven out of 10
death [11]: none of the animals died
distance travelled [11]: unaffected
duration of activity [11]: unaffected
number of movements, 60 min [11]: accentuated 60 min later
number of movements, first 10 min [11]: reduction in the number of movements
rearing events [11]: reduced
signs of suffering [11]: no signs of suffering

maurocalcin: a scorpion venom peptide (GDCLPHLKLCKENKDCCSKKCKRRGTNIEKRCR; UniProt P60254 1-33, looked up)
effect of phosphorylation by protein kinase A [12]: converts the peptide from an allosteric activator to a ryanodine receptor blocker

protoxin-II: protoxin-II, Nav1.7 selective to a large extent [reference compound]
inhibition of Na+ current ([2]; 0.01 µM): 80%
Nav1.7 selectivity [13]: Nav1.7 selective to a large extent

ω-conotoxin MVIIA
fold better affinity than non-amidated ω-conotoxin MVIIA-Gly-COOH [14]: 10 fold

Reference: publication PMC12019880 (Frontiers in Pharmacology, 2025)
